Measured values from publication PMC10775556, “Synthesis, antileishmanial, antimalarial evaluation and molecular docking study of some hydrazine-coupled pyrazole derivatives” (BMC Chemistry, 2024).
pIC50: −log10 of the molar value. Converted amounts (≈) assume the structure as drawn. “And” between values parts separate entries of the source, which are not always exact repeats. Equal entries are not always repeated. Where two headings read alike, the source gives them in different places.

Key:
[1] = tested on: Plasmodium berghei ANKA strain; test: In vivo antimalarial four-day suppressive test; parameters: species or system Swiss albino mice; details: for Mean survival time: 48.46 µmol/kg per day (CQ 25 mg/kg), ND = no mouse death recorded during the study period; for Mean survival time / % Parasitemia: mean ± SD; for inhibition in vivo at 48.46 µmol/kg: Plasmodium berghei, in Mus musculus, 96 h, read-out: % Suppression
From the text: The four-day suppressive test was implemented to screen the antimalarial activity of the target compounds as it is effective in evaluating early infections and convenient to assess the prodrug effects of test compounds [30]. In this study, the in vivo antimalarial activity of the target compounds was investigated by using mice infected with Plasmodium berghei (achieve steady-state infection) at a dose of 48.4 µmol/kg per day. The results of the antimalarial activity screening of target compounds against the control groups were expressed based on mean parasitemia and percent inhibition of parasitemia (Table 2) which is known as a reliable parameter for in vivo antimalarial screening tests. […] While compounds 9, 10 and 11 containing amidic carbonyl group had less than 50% mean percent suppression compared to the positive control groups. Among the tested compounds, bis-[N,N-dimethylaminomethylene-4-(3-(4-methylphenyl)-4-(hydrazonomethylene)-1H-pyrazole-1-yl)benzenesulfonamide] […] On the other hand, there was an increase in the mean survival time (9.8 ± 1.3) of mice treated with a half dose ([…]) of compound 15, highlighting the potential dose-dependent toxicity associated with bis-structure due to cleavage of acid labile C = N bond and subsequent increase in concentration in the systemic circulation. […] This could be attributed to the presence of a primary amine group adjacent to the C = N bond that can increase the strength of binding interaction with the active site of the receptor by hydrogen bonding. Moreover, the hydrophobic interaction imparted by the methylated phenyl group with the amino acid residues in the enzyme pocket may be beneficial for the observed antimalarial activity of compound 14. The compounds containing C = O bond (9–12) near C = N had relatively lower antimalarial activity due to the electron-withdrawing effect and subsequent decrease in hydrogen bonding interactions with the different functional groups reside in the enzyme pocket.
The in vivo antimalarial activity of the synthesized compounds was determined using the four-day standard suppressive test using Swiss albino mice donated by the Ethiopian Health and Nutrition Institute, Addis Ababa, Ethiopia. Briefly, Swiss albino mice were infected with Plasmodium berghei ANKA strain (0.2 mL of 2 × 10^7 parasitized erythrocytes) through intraperitoneal injection. After 2 h of infection, the mice were weighed and randomly divided into nine groups of five mice per cage. Groups 1–7 received each test compound ([…]) dissolved in a vehicle containing 7% Tween 80, 3% ethanol, and water. Group 8 was treated with chloroquine phosphate (25 mg/kg) suspended in 7% Tween 80, 3% ethanol, and water which served as a positive control. Group 9 received 2 mL/100 g of the negative control (vehicle 7% Tween 80, 3% ethanol, and water). On day four (96 h post-infection), a blood smear was taken from the tail of each mouse, fixed with absolute ethanol, and stained with Giemsa stain. Then, the level of parasitemia was determined microscopically by counting four fields of approximately 100 erythrocytes per field. Finally, the antimalarial effects of control groups and test compounds were expressed in terms of blood parasitemia, percent suppression and mean survival time of mice.
The % suppression and % parasitemia in the antimalarial activity testing were computed using the formulas given below and the resulting data along with the mean survival time was analyzed using Microsoft office excel 2007. The variation in the values of suppressive test was assessed by using one-way analysis of variance (ANOVA) and p < 0.05 is considered as stastically significant.
Parasitemia(%)=Numberofinfectedredbloodcells/Numberoftotalredbloodcells×100
Suppression(%)=Parasitemiaintheuntreatedgroup-Parasitemiainthetreatedgroup/Parasitemiainuntreatedgroup×100

[2] = tested on: Leishmania aethiopica promastigotes; test: In vitro antipromastigote (antileishmanial) assay, AlamarBlue; format: cell-based
Experimental: The viability of promastigotes can be estimated by microscopically counting live cells, measuring enzyme activities via the 3-(4,5-dimethyl-thiazol-2-yl)-2,5-diphenyl-tetrazolium bromide (MTT) assay, etc. The frequent use of these methods is hampered due to the lengthy and time-consuming procedures followed in the test. […] The extent of fluorescence produced by each sample is strongly correlated with the number of living cells.
A complete culture medium was prepared from RPMI-1640, 10% HIFCS, 1% penicillin–streptomycin, and 1% L-glutamine for the in vitro antipromastigote assay. The Leishmania aethiopica isolate was grown first on Novy-MacNeal-Nicolle (NNN) medium and then in tissue-culture flasks containing RPMI-1640 medium supplemented with 10% HIFCS and 1% 100 IU penicillin/mL-100 µg/mL streptomycin solution at 22 ℃ [35].
The entire test compound was dissolved in DMSO to a final concentration of 1 mg/mL. The final DMSO concentration was adjusted not to exceed v/v 1% to avoid its inhibitory effect against parasite proliferation or change in morphology. Six different concentrations of test compounds, ranging from 10 µg/mL to 0.04 µg/mL, were prepared by […] serial dilutions. Amphotericin B deoxycholate (with a concentration ranging from 0.5 µg/mL to 0.002 µg/mL) and miltefosine (with a concentration ranging from 40 µg/mL to 0.16 µg/mL) were used as a positive control and DMSO (v/v 1%) in complete media was used as a negative control to compare the antileishmanial activities of test compounds [36]. All the prepared drugs were stored at − 20 ℃ until used in the experiment.
The antileishmanial activity of the test compounds was evaluated in vitro against isolates of Leishmania aethiopica promastigotes. 100 µL of the parasite suspension containing 3 × 10^6 promastigotes per milliliter was added to 96-well plates. The six different concentrations of test compounds and reference drugs were then added in triplicate. DMSO in complete RPMI media was used as a negative control to compare the antileishmanial activities of the test compounds. After 24 h incubation, 20 µL of fluorochrome AlamarBlue® (12.5 mg resazurin dissolved in 100 mL of distilled water) was added to each well. Then, the absorbance of each well was measured after 4 h of incubation at wavelengths of 492 and 630 nm using an ELISA reader for the quantitative determination of viable cells. Finally, the IC50 values were computed from sigmoidal dose–response curves using GraphPad Prism 5.0 software (GraphPad Software, Inc., San Diego, CA, USA).

[3] = tested on: chloroquine-resistant RKL9 strains; details: read-out: IC50 against chloroquine-resistant RKL9 strains; cited from earlier work
[4] = parameters: method as in PMID 25768697; details: cited from earlier work
[5] = In vitro cytotoxicity test; format: cell-based, African green monkey; details: African green monkey, VERO cells (African green monkey kidney cells); normal VERO cells, 72 h, formazan OD
Experimental: (§1) The cytotoxicity of compound 13 with promising antileishmanial activity was investigated in vitro against African green monkey kidney cells (VERO cells). In a 96-well plate, VERO cells (1 × 10^5 cells per well) were incubated in triplicates with different concentrations of compound 13 (0–100 µM) for 72 h at 37 ℃ incubator with 95% humidity and 5% CO2 and the cell viability was determined by measuring the optical density (OD) of formazan. […] The CC50 and IC50 values were computed using the formula: Growth inhibition (%) = (ODcontrol-ODtest/ODcontrol)×100 . In addition, the selectivity indices (SI) were computed using the formula SI = CC50/IC50.

[6] = tested on: VERO cells; test: In vitro cytotoxicity test; format: cell-based, African green monkey; details: CC50 VERO cells / IC50 Leishmania aethiopica
Experimental: as §1

[7] = In vivo acute toxicity test (oral and intraperitoneal); details: mice
Experimental: The mice were weighed and divided into five groups of six mice per cage. After fasting them overnight, groups 1–4 received the test compound suspended in 1% acacia gum was administered orally at doses of 50, 100, 200, and 300 mg/kg. Group 5 (served as a control) was treated with the solvent (1% acacia gum) at a maximum dose of 1 mL/100 gm of body weight. […] Follow-up continued for 14 days with special attention for the first 24 h.

[8] = P. berghei infected mice, day 4, 48.46 µmol/kg per day (CQ 25 mg/kg)
[9] = Leishmania aethiopica promastigotes, triplicate, 24 h incubation + 4 h AlamarBlue, read-out: IC50 Values (µg/mL), antipromastigote activity
[10] = Leishmania aethiopica promastigotes, molar form of the µg/mL values, read-out: IC50 Values (µM/mL), antipromastigote activity
[11] = Leishmania aethiopica, value used for selectivity index, read-out: IC50 (µM) of antileishmanial activity (Table 3)

SMILES | Mean survival time ([1]; P. berghei infected mice) | % Parasitemia [1, 8] | inhibition in vivo at 48.46 µmol/kg [1, 8] | IC50 [2, 9] | IC50 [2, 10] | other results
CN(C)C=NS(=O)(=O)c1ccc(-n2cc(/C=N/NC(=O)c3ccccc3O)c(-c3ccc(Cl)cc3)n2)cc1 [Compound 10, Nʹ-[(3-(4-chlorophenyl)-1-((4-N,N-dimethylaminomethylenesulfonamido)phenyl)-1H-pyrazol-4-yl)methylene] salicylhydrazide] | 6.8 ± 0.7 days | 33.0 ± 6.7% | < 50% | 0.207 µg/mL | 0.45 µM | 
Cc1ccc(-c2nn(-c3ccc(S(N)(=O)=O)cc3)cc2/C=N/N)cc1 [Compound 14, 4-[3-(4-methylphenyl)-4-hydrazonomethylene-1H-pyrazol-1-yl] benzenesulfonamide] | 9.0 ± 2.0 days | 15.5 ± 4.1% |  | 3.26 µg/mL | 6.71 µM | 
Cc1ccc(-c2nn(-c3ccc(S(=O)(=O)N=CN(C)C)cc3)cc2C=NN=Cc2cn(-c3ccc(S(=O)(=O)N=CN(C)C)cc3)nc2-c2ccc(C)cc2)cc1 [Compound 15, Bis-[N,N-dimethylaminomethylene-4-(3-(4-methylphenyl)-4-(hydrazonomethylene)-1H-pyrazole-1-yl)benzenesulfonamide]] | 7.7 ± 1.4 days | 5.0 ± 1.4% |  | 0.181 µg/mL | 0.441 µM | mean survival time at half dose ([1]; P. berghei infected mice, half dose (24.2 µmol/mL)): 9.8 ± 1.3
Cc1ccc(-c2nn(-c3ccc(S(=O)(=O)N=CN(C)C)cc3)cc2/C=N/NC(=O)c2ccccc2O)cc1 [Compound 12] | 7.8 ± 1.2 days | 67.9 ± 3.7% |  | 0.111 µg/mL | 0.28 µM | 
O=C(NN=Cc1cn(-c2ccc(Br)cc2)nc1-c1ccccc1)c1ccccc1O [Compound 9, Nʹ-[(1-(4-bromophenyl)-3-phenyl-1H-pyrazol-4-yl)methylene] salicylhydrazide] | 8.6 ± 1.8 days | 34.7 ± 4.1% | < 50% | 0.084 µg/mL | 0.256 µM | 
CCN(CC)CCCC(C)Nc1ccnc2cc(Cl)ccc12 (stereo not drawn) [CQ, Chloroquine phosphate, reference compound] |  | 0% |  |  |  | pIC50 [3]: 6.72; inhibition in vivo at 48.46 µmol/kg [1]: 100%
C[C@@H]1[C@H](O)[C@@H](C)/C=C/C=C/C=C/C=C/C=C/C=C/C=C/[C@H](O[C@@H]2O[C@H](C)[C@@H](O)[C@H](N)[C@@H]2O)C[C@@H]2O[C@](O)(C[C@@H](O)C[C@@H](O)[C@H](O)CC[C@@H](O)C[C@@H](O)CC(=O)O[C@H]1C)C[C@H](O)[C@H]2C(=O)O [Amphotericin B, Amphotericin B deoxycholate, reference compound] |  |  |  | 0.047 µg/mL | 0.035 µM | IC50, antileishmanial activities [4]: 0.0472 µg/mL (≈ 0.0511 µM)
Cc1ccc(-n2cc(C=NNC(=O)c3ccccc3O)c(-c3ccccc3)n2)cc1 [Compound 11, Nʹ-[(3-phenyl-1-(4-methylphenyl)-1H-pyrazol-4-yl)methylene] salicylhydrazide] | 8.7 ± 0.7 days | 30.0 ± 6.7% | < 50% | 5.74 µg/mL | 10.4 µM | 
CCCCCCCCCCCCCCCCOP(=O)([O-])OCC[N+](C)(C)C [Miltefosine, hexadecylphosphocholine, reference compound] |  |  |  | 3.13 µg/mL | 7.68 µM | CC50 at 72 h [5]: 99700 nM; SI (selectivity index, CC50/IC50) [6]: 12.63; IC50 [2, 11]: 7.9 µM; IC50, antileishmanial activities [4]: 3.1921 µg/mL (≈ 7.83 µM)
Cc1ccc(-c2nn(-c3ccc(S(=O)(=O)N=CN(C)C)cc3)cc2/C=N/Nc2ccccc2)cc1 [Compound 13, N,N-dimethylaminomethylene-4-[(3-(4-methylphenyl)-4-(phenylhydrazonomethylene))-1H-pyrazol-1-yl]benzenesulfonamide] | 9.5 ± 1.9 days | 24.0 ± 1.7% | > 50% |  |  | CC50 at 72 h [5]: 118000 nM; SI (selectivity index, CC50/IC50) [6]: 194 and 194.88; intraperitoneal acute toxicity ([7]; intraperitoneal injection ≤ 140 mg/kg, within 24 h or the entire study period): devoid of any inherent dose-dependent toxicity or death; oral acute toxicity: death ([7]; oral 50, 100, 200 and 300 mg/kg, 14 days): devoid of any death at all dose; oral acute toxicity: physical and gross behavioral observations ([7]; oral, up to highest dose 300 mg/kg): no visible symptoms of toxicity; IC50 ([2]; Leishmania aethiopica, read-out: IC50 Values (µM/mL), antipromastigote activity): 0.033 µM; IC50 [2, 11]: 0.604 µM; fold more active than amphotericin B deoxycholate (antipromastigote) ([2]; ratio of IC50 values versus amphotericin B deoxycholate): ~2.6 fold
